Here are results for nine molecules from PubChem BioAssay (NCI).

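Test compounds were applied to cells in 96-well plates for 48 hours at 5 doses. GI50 marks 50% less growth. TGI marks complete inhibition of growth.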 Some results are limits rather than exact numbers.

Some test systems named below: NCI-H522 lung; OVCAR-3 ovarian; MCF7 breast; HCC-2998 colon; OVCAR-8 ovarian; MDA-MB-231 breast; SK-MEL-5 melanoma; U251 CNS; PC-3 prostate; TK-10 renal.
Common to all, as to assay: inhibition of tumour cell growth, NCI panel, 48 h

As for `COc1cc(-c2nn(-c3ccc(NC(=O)Nc4cc(C(F)(F)F)cc(C(F)(F)F)c4)cc3)cc2-c2ccncc2)ccc1Cl`, the GI50 was 2.25 µM with NCI-H522 lung; 1.46 µM in the assay with OVCAR-3 ovarian; 2.84 µM in the assay with MCF7 breast; 2.21 µM in the assay on HCC-2998 colon; 2.48 µM in the assay with OVCAR-8 ovarian; 1.64 µM with MDA-MB-231 breast. The GI50 in the assay on SK-MEL-5 melanoma is 1.53 µM; with U251 CNS, 1.8 µM; in the assay with PC-3 prostate it was 1.2 µM; in the assay with TK-10 renal, 3.13 µM. Besides, the TGI in the assay with NCI-H522 lung was 5.99 µM; in the assay on OVCAR-3 ovarian, 3.88 µM; with MCF7 breast it was 8.98 µM; with HCC-2998 colon it was 5.38 µM; in the assay on OVCAR-8 ovarian, 27.8 µM; with MDA-MB-231 breast, 3.34 µM. In addition, the TGI came out at 2.98 µM with SK-MEL-5 melanoma, 4.52 µM with U251 CNS, 10.8 µM with PC-3 prostate and 9.3 µM in the assay with TK-10 renal.

Turning to `CCc1nc(C)cn1C(=O)OCc1nc2nc(Cl)nc(N3CCOCC3)c2[nH]1`, the GI50 is 1.37 µM in the assay on NCI-H522 lung; 0.636 µM in the assay with OVCAR-3 ovarian; 0.633 µM in the assay with MCF7 breast; 1.84 µM in the assay with HCC-2998 colon; 1.47 µM with OVCAR-8 ovarian; 1.39 µM in the assay on MDA-MB-231 breast. Moreover, the GI50 with SK-MEL-5 melanoma was 1.64 µM; in the assay on U251 CNS, 1.63 µM; in the assay with PC-3 prostate it was 1.25 µM; with TK-10 renal, 1.79 µM. Further, the TGI is 3.37 µM in the assay on NCI-H522 lung; 1.98 µM with OVCAR-3 ovarian; 2.44 µM in the assay on MCF7 breast; 3.44 µM with HCC-2998 colon; 3.61 µM in the assay on OVCAR-8 ovarian; 2.83 µM in the assay with MDA-MB-231 breast. In addition, the TGI is 3.01 µM with SK-MEL-5 melanoma, 3.42 µM in the assay with U251 CNS, 3.01 µM in the assay with PC-3 prostate and 3.28 µM in the assay with TK-10 renal.

As to `Cn1ncc(C#N)c1-c1ccc2c(c1)CN([C@H](CN)Cc1cccc(F)c1)C2=O`, the GI50 with NCI-H522 lung is 17.6 µM; in the assay with OVCAR-3 ovarian it was 10 µM; in the assay with MCF7 breast it was 0.812 µM; in the assay on HCC-2998 colon, 5.96 µM; with OVCAR-8 ovarian, 47.7 µM; with MDA-MB-231 breast, 20.9 µM. Moreover, the GI50 in the assay with SK-MEL-5 melanoma is 12.1 µM; in the assay on U251 CNS, 0.693 µM; in the assay on PC-3 prostate, 0.393 µM; with TK-10 renal, 0.787 µM. For the same molecule, the TGI is 60.3 µM in the assay with NCI-H522 lung; greater than 90.4 µM in the assay on OVCAR-3 ovarian; 25.4 µM with MCF7 breast; greater than 100 µM in the assay with HCC-2998 colon; greater than 100 µM in the assay with OVCAR-8 ovarian; greater than 100 µM in the assay with MDA-MB-231 breast. Further, the TGI is 24.9 µM with SK-MEL-5 melanoma, greater than 86.4 µM in the assay with U251 CNS, greater than 70.5 µM in the assay with PC-3 prostate and 24 µM in the assay with TK-10 renal.

As for `O=C(/C=C/c1ccccc1)c1cccc2ccccc12`, the GI50 in the assay with NCI-H522 lung is 2.75 µM; in the assay on OVCAR-3 ovarian, 2.01 µM; with MCF7 breast, 3.07 µM; in the assay with HCC-2998 colon, 2.65 µM; in the assay with OVCAR-8 ovarian, 1.82 µM; in the assay on MDA-MB-231 breast, 4.16 µM. In addition, the GI50 was 2.98 µM with SK-MEL-5 melanoma, 2.14 µM with U251 CNS, 2.81 µM in the assay with PC-3 prostate and 4.04 µM in the assay with TK-10 renal. In addition, the TGI with NCI-H522 lung came to 8.41 µM; with OVCAR-3 ovarian, 4.71 µM; in the assay on MCF7 breast, 11.1 µM; in the assay with HCC-2998 colon, 6.81 µM; in the assay with OVCAR-8 ovarian it was 3.97 µM; with MDA-MB-231 breast, 18.3 µM. Also, the TGI was found to be 11.7 µM with SK-MEL-5 melanoma, 6.02 µM in the assay on U251 CNS, 7.78 µM in the assay with PC-3 prostate and 14.2 µM in the assay on TK-10 renal.

With `COc1cc(OCc2ccccc2)c2c(CCC(=O)O)cc(=O)oc2c1` (tested in a mixture with another compound), the TGI with NCI-H522 lung was greater than 100 µM; in the assay with OVCAR-3 ovarian it was greater than 100 µM; with MCF7 breast it was 61.7 µM; in the assay with HCC-2998 colon, greater than 100 µM; in the assay with OVCAR-8 ovarian, greater than 100 µM; with MDA-MB-231 breast it was greater than 100 µM. Besides, the TGI with SK-MEL-5 melanoma was greater than 100 µM; in the assay on U251 CNS, greater than 100 µM; with PC-3 prostate it was greater than 100 µM; with TK-10 renal, 96.6 µM.

For `CCCCC(=O)N(c1ccc(Nc2c3ccccc3nc3cc([N+](=O)[O-])ccc23)cc1)S(C)(=O)=O`, the GI50 with NCI-H522 lung was 3.93 µM; with OVCAR-3 ovarian, 14.2 µM; in the assay on MCF7 breast it was 0.293 µM; with HCC-2998 colon it was 14.1 µM; in the assay on OVCAR-8 ovarian it was 11 µM; with MDA-MB-231 breast it was 12.8 µM. Further, the GI50 was 4.25 µM with SK-MEL-5 melanoma, 5.32 µM with U251 CNS, 3.64 µM in the assay on PC-3 prostate and 7.61 µM in the assay with TK-10 renal. Moreover, the TGI in the assay with NCI-H522 lung came out at 16 µM; in the assay with OVCAR-3 ovarian, 66.6 µM; with MCF7 breast, 9.83 µM; in the assay on HCC-2998 colon it was 30 µM; in the assay with OVCAR-8 ovarian, 78.8 µM; in the assay with MDA-MB-231 breast, 49.5 µM. For the same molecule, the TGI was 18.3 µM in the assay on SK-MEL-5 melanoma, greater than 59.1 µM in the assay on U251 CNS, 54.2 µM with PC-3 prostate and greater than 84 µM with TK-10 renal.

`COc1ccc(OC)c(Nc2nc3nonc3nc2Nc2cccc(Br)c2)c1`: the GI50 with NCI-H522 lung is 0.254 µM; with OVCAR-3 ovarian it was 0.6 µM; in the assay with MCF7 breast it was 1.63 µM; with HCC-2998 colon, 0.818 µM; in the assay with OVCAR-8 ovarian it was 1.02 µM; in the assay with MDA-MB-231 breast, 1.06 µM. The GI50 was 0.297 µM in the assay on SK-MEL-5 melanoma, 0.577 µM with U251 CNS, 0.454 µM in the assay on PC-3 prostate and 0.988 µM with TK-10 renal. In addition, the TGI is 0.775 µM in the assay with NCI-H522 lung; 21.6 µM in the assay on OVCAR-3 ovarian; greater than 100 µM with MCF7 breast; greater than 100 µM with HCC-2998 colon; greater than 100 µM in the assay with OVCAR-8 ovarian; 10.7 µM in the assay with MDA-MB-231 breast. The TGI in the assay with SK-MEL-5 melanoma is 1.57 µM; in the assay with U251 CNS it was 11.7 µM; in the assay with PC-3 prostate, greater than 100 µM; in the assay with TK-10 renal, 16.5 µM.

On to `Brc1ccccc2cc(-c3ccccc3)nc1-2`, for which the TGI with NCI-H522 lung was 21.7 µM; with OVCAR-3 ovarian, 12.3 µM; in the assay on MCF7 breast it was 64.8 µM; in the assay on HCC-2998 colon it was 10.8 µM; in the assay on OVCAR-8 ovarian it was greater than 50.2 µM; in the assay on MDA-MB-231 breast, greater than 42.3 µM. Further, the TGI is 36.2 µM in the assay on SK-MEL-5 melanoma, 37.5 µM with U251 CNS, greater than 64.8 µM with PC-3 prostate and 30.8 µM in the assay on TK-10 renal.

`O=S1(=O)c2ccccc2N(c2ccccc2)c2nnnn21`: the TGI with NCI-H522 lung was 38.9 µM; with OVCAR-3 ovarian, 47.2 µM; with MCF7 breast, greater than 100 µM; in the assay with HCC-2998 colon, 36.4 µM; with OVCAR-8 ovarian, greater than 100 µM; in the assay on MDA-MB-231 breast, 72.4 µM. Also, the TGI with SK-MEL-5 melanoma, in the assay with U251 CNS, in the assay on PC-3 prostate and in the assay with TK-10 renal was greater than 100 µM in each case.
